Assay results published in US20130164228A1, “COMPOSITIONS COMPRISING GALLATES AND GALLAMIDES” (Colgate-Palmolive Company, priority 2011, published 2013).

Experiments:
[1] = tested on: LL-37 release from human gingival epithelial cells; experiment: Induction of anti-microbial peptides: LL-37 ELISA of supernatants; type: cell-based; conditions: for LL-37 (ng/ml) at 0.05% after 16 hrs: 0.05% test compound; for LL-37 (ng/ml) at 0.1% after 4 hrs: 0.1% test compound
[2] = tested on: β-defensin release from human gingival epithelial cells; experiment: Induction of anti-microbial peptides: β-defensin ELISA of supernatants; type: cell-based; conditions: 0.1% test compound
LL-37 production = conditions: natural products with only one 1,2,3-trihydroxybenzene ring; cited from earlier work
[3] = Stability/discoloration of THDG and CHDG (neat, solution, saliva, dentifrice); type: physicochemical; conditions: for stability in saliva (discoloration): 24 h at 37° C., subject specific, saliva pH 6.5-8; for discoloration in dentifrice, CDC base: in 2 weeks; for Stability of neat materials: neat powders; for discoloration of solutions in DMSO/water: pH 6.1-6.5, after 4M at RT; for discoloration in dentifrice, silica base: in 1 week
[4] = tested on: Actinomyces viscosus (ATCC # 43146); experiment: Antibacterial growth inhibition (GI) assay; type: cell-based; conditions: 100 ppm, OD610 at 2, 4, 6, 24 h
Experimental: An overnight culture of Actinomyces viscosus (ATCC # 43146) is diluted to an OD610˜0.2 in sterile trypticase soy broth (TSB) Nine mls of diluted Actinomyces viscosus is added to triplicate 15 mls sterile culture tubes for each sample or control tested. One ml of each analog was added to the corresponding culture tube and briefly vortexed. Cultures are incubated at 37° C. in a shaking water bath. Supernatants are removed at 2, 4, 6, and 24 h and the OD610 read. Results from triplicate samples were averaged and growth is plotted as a function of time.

[5] = Vitro-Skin assay of potential uptake in skin; type: in vitro ADME
Excerpt: Using a commercial Vitro-Skin® assay to measure potential uptake in skin, we see uptake from all the formulations, but have better uptake in the Dical formulation than in the silica/SLS formulation (units in micrograms/cm^2): • 0.2% THDG/CDC: 4.9 • 0.2% THDG/HSLS: 0.6 • 0.2% CHDG/CDC: 4.4 • 0.2% CHDG/[…] • 0.3% Triclosan (positive control): 7.7

Compound: O=C(O[C@H]1CCC[C@H]1OC(=O)c1cc(O)c(O)c(O)c1)c1cc(O)c(O)c(O)c1 [CPDG, cis-1,2-cyclopentanediol digallate]
- LL-37 (ng/ml) at 0.05% after 16 hrs [1]: 160 ng/mL
- LL-37 (ng/ml) at 0.1% after 4 hrs [1]: 120 ng/mL
- β-defensin (ng/ml) at 0.1% after 4 hrs [2]: 0.5 ng/mL

Compound: Oc1cc(O)c2c(c1)O[C@H](c1cc(O)c(O)c(O)c1)[C@H](O)C2 [epigallocatechin]
- potency in LL-37 production compared with EGCG (LL-37 production): significantly less potent

Compound: CCCCOC(=O)c1cc(O)c(O)c(O)c1 [BG]
- LL-37 (ng/ml) at 0.05% after 16 hrs [1]: 50 ng/mL
- LL-37 (ng/ml) at 0.1% after 4 hrs [1]: 100 ng/mL
- β-defensin (ng/ml) at 0.1% after 4 hrs [2]: 0 ng/mL

Compound: O=C(N[C@H]1CCCC[C@H]1NC(=O)c1cc(O)c(O)c(O)c1)c1cc(O)c(O)c(O)c1 [CHDGA, cis-1,2-cyclohexane digallamide]
- LL-37 (ng/ml) at 0.05% after 16 hrs [1]: 120 ng/mL
- LL-37 (ng/ml) at 0.1% after 4 hrs [1]: 100 ng/mL
- β-defensin (ng/ml) at 0.1% after 4 hrs [2]: 0.7 ng/mL

Compound: O=C(O[C@H]1CCCC[C@H]1OC(=O)c1cc(O)c(O)c(O)c1)c1cc(O)c(O)c(O)c1 [CHDG, cis-1,2-cyclohexanediol digallate]
- LL-37 (ng/ml) at 0.05% after 16 hrs [1]: 3700 ng/mL
- LL-37 (ng/ml) at 0.1% after 4 hrs [1]: 5200 ng/mL
- β-defensin (ng/ml) at 0.1% after 4 hrs [2]: 150 ng/mL
- stability in saliva (discoloration) [3]: no discoloration to deep green discoloration
- discoloration in dentifrice, CDC base ([3]; CDC base): slight discoloration
- Stability of neat materials [3]: short term shelf stability acceptable
- discoloration of solutions in DMSO/water [3]: no discoloration
- discoloration in dentifrice, silica base ([3]; silica base): moderate discoloration

Compound: O=C(O[C@@H]1Cc2c(O)cc(O)cc2O[C@@H]1c1cc(O)c(O)c(O)c1)c1cc(O)c(O)c(O)c1 [EGCG, epigallocatechin gallate, reference compound]
- antibacterial activity in bacterial culture [4]: modest antibacterial activity
- LL-37 (ng/ml) at 0.05% after 16 hrs ([1]; listed as EGCG (source Kenko)): 15 ng/mL
- LL-37 (ng/ml) at 0.05% after 16 hrs ([1]; listed as EGCG (source TeaVigo)): 20 ng/mL
- LL-37 (ng/ml) at 0.1% after 4 hrs [1]: 160 ng/mL
- β-defensin (ng/ml) at 0.1% after 4 hrs [2]: 4.3 ng/mL
- time to discoloration in dentifrice, CDC base ([3]; CDC base): 2 days
- time to discoloration of solution in DMSO/water ([3]; same conditions: DMSO/water, RT): < 1 week
- time to discoloration in dentifrice, silica base ([3]; silica base): 2 days

Compound: O=C(N[C@@H]1CCCC[C@H]1NC(=O)c1cc(O)c(O)c(O)c1)c1cc(O)c(O)c(O)c1 (relative stereo) [THDGA, trans-1,2-cyclohexane digallamide]
- LL-37 (ng/ml) at 0.05% after 16 hrs [1]: 130 ng/mL
- LL-37 (ng/ml) at 0.1% after 4 hrs [1]: 100 ng/mL
- β-defensin (ng/ml) at 0.1% after 4 hrs [2]: 1.5 ng/mL

Compound: Oc1cc(Cl)ccc1Oc1ccc(Cl)cc1Cl [Triclosan, triclosan, reference compound]
- uptake in Vitro-Skin, positive control ([5]; 0.3% Triclosan): 7.7 micrograms/cm^2

Compound: catechin gallate
- potency in LL-37 production compared with EGCG (LL-37 production): significantly less potent

Compound: O=C(O[C@@H]1CCCC[C@H]1OC(=O)c1cc(O)c(O)c(O)c1)c1cc(O)c(O)c(O)c1 (relative stereo) [THDG, trans-1,2 cyclohexanediol digallate]
- LL-37 (ng/ml) at 0.05% after 16 hrs [1]: 5900 ng/mL
- LL-37 (ng/ml) at 0.1% after 4 hrs [1]: 4100 ng/mL
- β-defensin (ng/ml) at 0.1% after 4 hrs [2]: 280 ng/mL
- stability in saliva (discoloration) [3]: no discoloration to deep green discoloration
- discoloration in dentifrice, CDC base ([3]; CDC base): slight discoloration
- Stability of neat materials [3]: short term shelf stability acceptable
- discoloration of solutions in DMSO/water [3]: no discoloration
- discoloration in dentifrice, silica base ([3]; silica base): moderate discoloration
- uptake in Vitro-Skin from CDC formulation ([5]; 0.2 %): 4.9 micrograms/cm^2
- uptake in Vitro-Skin from HSLS formulation ([5]; 0.2 %): 0.6 micrograms/cm^2
